Read-outs that look alike come from different tables or passages of the source.
Experiments:
NCI-H226 = assay: NCI-60 drug screen (SRB), NSCLC line NCI-H226; assay type: cell-based, human; conditions: for GI50 / CC50: Homo sapiens; for CC50: read-out: LC50 (the source's name)
Protocol: (§1) As a primary screening, seven selected compounds were submitted to the National Cancer Institute (NCI) cell lines screen for evaluation of their anticancer activity. From the data analysis, it follows that approximately 95% of the actives from the 60 cell lines screen can be identified. The detailed methods used for the 60 cell lines panel have been described elsewhere [54]–[59]. Briefly, cellular protein levels were determined after 48 hours of drug exposure by SRB colorimetry. Through the use of a time zero cell control, the cell growth can be determined for each cell line thus allowing calculations of GI50, TGI, and LC50. Comparison to plates not exposed to drug permits determination of concentration and times of exposure conferring GI50, TGI, and LC50. […] By these criteria, seven compounds reported from our compounds bank were all active and passed on for evaluation in the full panel of 60 human tumor cell lines. The panel is organized into nine subpanels representing diverse histology: leukemia, melanoma, and cancers of the lung, colon, kidney, ovary, breast, prostate, and central nervous system.

NCI-H460 = assay: NCI-60 drug screen (SRB), NSCLC line NCI-H460; assay type: cell-based, human; conditions: for LC50 (concentration killing 50% of cells) / GI50: Homo sapiens
Protocol: as §1

NCI-H522 = assay: NCI-60 drug screen (SRB), NSCLC line NCI-H522; assay type: cell-based, human; conditions: for GI50 / CC50: Homo sapiens; for CC50: read-out: LC50 (the source's name)
Protocol: as §1

HEL299 cells = assay: MTT cytotoxicity assay, HEL299 normal fibroblasts; assay type: cell-based; conditions: Homo sapiens, HEL 299, 48 h of drug exposure
Protocol: Non-small cell lung cancer cells A549 and Oct-4- and Nanog-overexpressed A549 clone (clone #3; A3), presented the properties of cancer stem-like cells, as well as epithelial-mesenchymal transdifferentiation, according to our previous study. They were grown in the same conditions as RPMI 1640 media supplemented with 10% fetal bovine serum (FBS), 100 units/mL penicillin, […] streptomycin, 1 mM sodium pyruvate, 2 mM l-glutamine and 1% non-essential amino acid (NEAA) in a humidified atmosphere with 5% CO2 at 37°C. Normal fibroblast cells HEL299 from American Type Culture Collection (ATCC) were grown in MEM media supplemented with 10% FBS, 100 units/mL penicillin, […] streptomycin, 1 mM sodium pyruvate, 2 mM l-glutamine and 1% NEAA, in a humidified atmosphere with 5% CO2 at 37°C.
The tetrazolium reagent (MTT; 3-(4,5-dimethylthiazol-2-yl)-2,5-diphenyl-tetrazolium bromide, USB) was designed to yield a colored formazan upon metabolic reduction by viable cells, [61]. Approximately 5×10^4 cells were plated onto each well of a 24-well plate and incubated in 5% CO2 at 37°C for 24 hours. To assess the in vitro cytotoxicity, each compound was dissolved in DMSO and prepared immediately before the experiments and then was diluted into the complete medium before being added to cell cultures. Test compounds were then added to the culture medium in various designated concentrations. After 48 hours, an amount of 100 µl of MTT was added to each well, and the samples were incubated at 37°C for 2 h. 100 µl DMSO was added to each well. The absorbency at 560 nm and reference absorbency at 670 nm were measured using an ELISA reader.

PARP-1 = biological target: T1, PARP-1 (Homo sapiens, UniProt P09874); assay: PARP inhibitory assay (histone-coated plate, colorimetric); assay type: biochemical
T1 construct: purchased
Protocol: We used histone-coated 96-well plate treated with seven putative PARP-1 inhibitors or well-known PARP-1 inhibitors (3-AB), and then added PARP enzyme to each well. PARP enzyme catalyzes the NAD-dependent addition of poly (ADP-ribose) to histone, and diluted Strp-HRP could bind to PARylation histone. TACS-Sapphire™ yielded blue under the HRP existence. In order to systematically evaluate the potential anticancer activity, the compounds were tested for their cytotoxicity in vitro against 60 human cancer lines in the NCI anticancer drug screen as well as for dose response curves and telomerase activity. Cell growth was analyzed by the MTT assay, with differences between dose-response curves analyzed non-parametrically. Telomerase activity was detected by a modified version of the PCR-based assay and TRAP assay. […] However, PARP inhibitory effects had no difference at 1 and 10 µM. As described above, NSC746364, NSC746366 and NSC749232 show dose-dependency only at low concentrations. […] NSC747854 had dose-dependent PARP inhibitory manners at three different concentrations, and reached the maximum inhibitory effect of 86% at 10 µM (Table 4). […] In this investigation, we continued to focus our attention on the role of NSC747854 and to understand the basis of pharmacophore selectivity. Of particular note is the significant difference with these selected compounds, compared with that of 3-AB and PJ-34. […] An electron-rich aromatic ring system, including a carboxamide group, should have at least a hydrogen atom on the amide nitrogen. The amidinium moiety is known to contribute to the stabilization of DNA recognition element through electrostatic and hydrogen bonding interactions. Therefore, hydrogen bonds are frequently used as recognition elements due to their directionality and also due to being attractive factors to the biological activity (Figure 1). Many classes of drugs have substantial curvature, high DNA affinity, binding to the minor-groove or major-groove, interference with DNA-associated enzymes (e.g. telomerase), and Poly (ADP-ribose) polymerase, PARP. […] This approach greatly expands the utility of the substituents and related pharmacophore for the construction of drugs in general. Therefore, it is desirable to design PARP inhibitors in accordance with various anticancer parameters. It was first reported that anthraquinone analogues are potent human PARP inhibitors.
Strip wells were removed from the wrapper and 50 µl of 1X PARP Buffer was added to each well to rehydrate the histones. They were incubated at room temperature for 30 minutes. The 1X PARP buffer was removed from the wells by tapping the strip wells on paper towels. The serial dilutions of inhibitor of interest were added to appropriate wells. The diluted PARP enzyme (0.5 unit/well) was then added to the wells containing inhibitor. They were incubated for 10 minutes at room temperature. The PARP Enzyme-High Specific Activity (PARP-HAS) standard was serially diluted in cold micro-tubes with 1X PARP buffer such that the total activity was 1 unit/25 µl, 0.5 units/25 µl, 0.25 units/25 µl, 0.1 units/25 µl, 0.05 units/25 µl, 0.025 units/25 µl, and 0.01 units/25 µl, respectively. The 25 µl of each standard was added to triplicate wells. The 25 µl of 1X PARP cocktail were distributed into each well by using a multichannel pipettor. The final reaction volume is 50 µl. They were incubated along with the strip wells at room temperature for 60 minutes. The strip wells were washed 2 times with 1X PBS +0.1% Triton X-100 (200 µl/well) followed by 2 washes with 1X PBS. All the liquid was removed following each wash by tapping strip wells onto paper towels. The 50 µl diluted Strep-HRP were added per well. They were incubated at room temperature for 60 minutes. The strip wells were washed 2 times with 1X PBS +0.1% Triton X-100 (200 µl/well) followed by 2 washes with 1X PBS. All the liquid was removed following each wash by tapping strip wells onto paper towels. […]

[1] = 48 hours drug exposure, SRB, read-out: GI50
[2] = NCI in vitro 60-cell lines Drug Screen, read-out: -Log GI50 (converted)

T1 sequence (P09874 whole entry): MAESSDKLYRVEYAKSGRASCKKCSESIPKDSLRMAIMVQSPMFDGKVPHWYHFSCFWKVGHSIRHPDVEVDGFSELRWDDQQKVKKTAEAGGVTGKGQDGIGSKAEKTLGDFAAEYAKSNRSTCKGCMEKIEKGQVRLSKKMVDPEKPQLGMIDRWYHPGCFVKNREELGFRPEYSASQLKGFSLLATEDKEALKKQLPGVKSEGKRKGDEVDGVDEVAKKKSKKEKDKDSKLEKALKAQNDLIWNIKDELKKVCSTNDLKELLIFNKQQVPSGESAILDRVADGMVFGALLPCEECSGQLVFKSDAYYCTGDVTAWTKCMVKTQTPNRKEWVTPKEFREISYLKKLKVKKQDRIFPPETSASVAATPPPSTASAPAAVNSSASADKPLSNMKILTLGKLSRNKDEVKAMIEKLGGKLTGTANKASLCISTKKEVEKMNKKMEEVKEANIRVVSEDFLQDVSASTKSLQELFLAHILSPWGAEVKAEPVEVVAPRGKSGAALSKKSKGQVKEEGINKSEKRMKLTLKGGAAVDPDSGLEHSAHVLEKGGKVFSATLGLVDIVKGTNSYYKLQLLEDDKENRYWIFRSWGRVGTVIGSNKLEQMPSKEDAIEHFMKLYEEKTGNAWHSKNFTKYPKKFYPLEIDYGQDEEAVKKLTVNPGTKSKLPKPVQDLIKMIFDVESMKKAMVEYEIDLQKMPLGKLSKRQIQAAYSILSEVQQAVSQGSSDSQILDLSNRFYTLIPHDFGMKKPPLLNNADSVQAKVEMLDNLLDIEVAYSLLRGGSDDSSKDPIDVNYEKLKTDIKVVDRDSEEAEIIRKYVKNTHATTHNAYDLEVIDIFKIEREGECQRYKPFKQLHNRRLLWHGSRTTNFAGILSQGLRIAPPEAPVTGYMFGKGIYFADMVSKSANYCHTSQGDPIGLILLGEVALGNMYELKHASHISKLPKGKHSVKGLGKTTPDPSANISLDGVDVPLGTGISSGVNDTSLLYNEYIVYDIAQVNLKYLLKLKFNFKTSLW

SMILES | TGI (NCI-H226; 48 hours drug exposure, SRB) [µM] | GI50 (NCI-H226; [1]) [µM] | CC50 (NCI-H226; 48 hours drug exposure, SRB) [µM] | GI50 (NCI-H226; [2]) [µM] | TGI (NCI-H460; 48 hours drug exposure, SRB) [µM] | LC50 (concentration killing 50% of cells) (NCI-H460; 48 hours drug exposure, SRB) [µM] | GI50 (NCI-H460; [1]) [µM] | GI50 (NCI-H460; [2]) [µM] | TGI (NCI-H522; 48 hours drug exposure, SRB) [µM] | GI50 (NCI-H522; [1]) [µM] | CC50 (NCI-H522; 48 hours drug exposure, SRB) [µM] | GI50 (NCI-H522; [2]) [µM] | IC50 (HEL299 cells) [µM] | inhibition at 0.1 µM (PARP-1) [%] | inhibition at 1 µM (PARP-1) [%] | inhibition at 10 µM (PARP-1; 10 µM) [%] | PARP inhibitory activity (%) (PARP-1; 10 µM)
O=C(CCN1CCCC1)Nc1ccc2c(c1)C(=O)c1cc(NC(=O)CCN3CCCC3)ccc1C2=O [NSC746366] | 12.6 | 2.72 | 58.3 | 2.69 | >100 | > 100 | 2.69 | 2.69 | 17.1 | 3.41 | > 100 | 3.39 | 13.4 | 16 | 45 | 47 | –
Cc1ccc(C(=O)Nc2c(NC(=O)CCl)ccc3c2C(=O)c2ccccc2C3=O)cc1 [NSC749232] | 20.8 | 8.81 | 49.1 | 8.91 | 14.1 | 34.1 | 5.81 | 5.75 | 2.03 | 8.95 | – | 0.891 | 27.1 | 42 | 51 | 52 | –
CN1CCN(Cc2nc3ccc4c(c3[nH]2)C(=O)c2ccccc2C4=O)CC1 [NSC749235] | 31.1 | 8.32 | > 100 | 8.32 | 15.2 | 45.1 | 3.79 | 3.8 | 29.0 | 13.8 | 61 | 13.8 | 19.6 | 40 | 28 | 58 | –
CCN(CC)CCC(=O)Nc1ccc2c(c1)C(=O)c1cc(NC(=O)CCN(CC)CC)ccc1C2=O [NSC746365] | 20.3 | 6.56 | 45.9 | 6.61 | 4.85 | > 100 | 1.9 | 1.91 | 4.59 | 1.4 | 19.3 | 1.38 | 7.19 | 50 | 56 | 51 | –
CN(C)CC(=O)Nc1ccc2c(c1)C(=O)c1cc(NC(=O)CN(C)C)ccc1C2=O [NSC746364] | 32.4 | 15.5 | 67.4 | 15.5 | 3.35 | 8.2 | 1.37 | 1.38 | 13.1 | 1.27 | 66.4 | 1.26 | 5.67 | 31 | 54 | 56 | –
CN(C)CCCSc1nc2ccc3c(c2[nH]1)C(=O)c1ccccc1C3=O [NSC747854] | 22.1 | 3.74 | 58.7 | 3.72 | 12.8 | – | 2.13 | 2.14 | 24.9 | 1.22 | 50 | 12.3 | 27.8 | 30 | 57 | – | 65

— publication PMC3581553, “New Approaches of PARP-1 Inhibitors in Human Lung Cancer Cells and Cancer Stem-Like Cells by Some Selected Anthraquinone-Derived Small Molecules” (PLoS ONE, 2013)
